According to patent US20110086836A1, “Substituted Phenylpiperidine Derivatives As Melanocortin-4 Receptor Modulators” (Santhera Pharmaceuticals (Schweiz) AG, priority 2006, published 2011):

Columns and labels:
[1] = molecular target: T1, human melanocortin-4 receptor (hMC-4R) (Homo sapiens, UniProt P32245); test: hMC-4R binding assay (fluorescence polarization, competition with fluorescence labeled NDP-alpha-MSH); details: HEK293 cell membrane preparations expressing human melanocortin receptors
T1 construct: expressed in transfected cells; host or cells: HEK293 (membrane preparations)
Method: The plate is incubated for 5 h at room temperature.
The degree of fluorescence polarization is determined with a fluorescence polarization microplate reader.

[2] = molecular target: T1, human melanocortin-4 receptor (hMC-4R); test: hMC-4R functional assay (membrane based cAMP fluorescence polarization); type: biochemical; set-up: concentration or dose not given beside the values; details: cAMP produced compared to stimulation with NDP-alpha-MSH
Method: Agonistic activity of human melanocortin receptors is determined in a homogeneous membrane based assay.
Membrane preparations from HEK293 cells expressing the human melanocortin receptors are added. After a short preincubation period, an appropriate amount of ATP, GTP and the cAMP antibody is added and the plate is further incubated before the fluorescence labeled cAMP conjugate is dispensed. The plate is incubated for 2 h at 4° C. before it is read on a fluorescence polarization microplate reader.

T1 sequence (P32245 whole entry): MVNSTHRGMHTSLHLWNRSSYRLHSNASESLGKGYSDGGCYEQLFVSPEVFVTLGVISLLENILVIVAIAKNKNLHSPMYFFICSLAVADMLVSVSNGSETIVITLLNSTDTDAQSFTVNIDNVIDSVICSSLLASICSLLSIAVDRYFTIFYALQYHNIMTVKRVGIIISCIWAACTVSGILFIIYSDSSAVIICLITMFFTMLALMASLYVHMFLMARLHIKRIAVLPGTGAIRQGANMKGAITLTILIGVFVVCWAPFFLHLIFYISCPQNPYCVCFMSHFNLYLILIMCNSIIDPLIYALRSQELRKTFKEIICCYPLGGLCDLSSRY

O=C(N[C@H](Cc1ccc(Cl)cc1Cl)C(=O)N1CCC(c2ccccc2OCCN2CCCC2)CC1)N1CCCC1 [Example 2]
IC50 [1]: 3.7 nM | % activation functional assay [2]: 0%

O=C(N[C@H](Cc1ccc(Cl)cc1Cl)C(=O)N1CCC(c2ccccc2CCN2CCC(F)CC2)CC1)N1CCCC1 [Example 36]
IC50 [1]: 9.6 nM | % activation functional assay [2]: 0%

O=C(N[C@H](Cc1ccc(Cl)cc1Cl)C(=O)N1CCC(c2ccccc2CCCN2CCCC2)CC1)N1CCOCC1 [Example 95]
IC50 [1]: 5.3 nM | % activation functional assay [2]: 0%

O=C(N[C@H](Cc1ccc(Cl)cc1Cl)C(=O)N1CCC(c2ccccc2OCCN2CCCC2)CC1)N1CCC(F)(F)C1 [Example 110]
IC50 [1]: 4.4 nM | % activation functional assay [2]: 0%

CN(C)[C@H]1CCN(C(=O)N[C@H](Cc2ccc(Cl)cc2Cl)C(=O)N2CCC(c3ccccc3OCCN3CCCC3)CC2)C1 [Example 113]
IC50 [1]: 3 nM | % activation functional assay [2]: 0%
